For 24 compounds, IC50 results are on record in patent publication US9187472B2 (AbbVie Inc., priority 2012, dated 2015).

For orientation: IC50 means the concentration that inhibits the measured activity by half. Read a high IC50 as lower potency.

The test system of this test is PC3 cells. In words: NAMPT Cell Proliferation Assay. Type of test: cell-based. The following applies: Homo sapiens, PC-3, 120 h, 5 days incubation, cell viability by Cell Titer Glo. The gist of the method: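 IC50 values derive from sigmoidal dose-response fits of percent inhibition of PC3 viability, measured by luminescence after 5 days of compound treatment. Cells (500/well, RPMI containing 10% heat-inactivated FBS) are allowed to attach overnight, and compounds are tested at 10-fold dilutions between 10 μM and 1×10^−5 μM.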
(In general: Cellular ATP, detected with luciferase, serves as a proxy for viable cell number.)
For `CNCCOC12CC3(C)CC(C)(CC(Cn4ncc(-c5ccc(C(=O)NCc6ccn7ccnc7c6)s5)c4C)(C3)C1)C2` [Example 1157, 5-[1-({3,5-dimethyl-7-[2-(methylamino)ethoxy]tricyclo[3.3.1.1^3,7]dec-1-yl}methyl)-5-methyl-1H-pyrazol-4-yl]-N-(imidazo[1,2-a]pyridin-7-ylmethyl)thiophene-2-carboxamide], the IC50 is 53.1 nM. This lies in the double-digit nanomolar range.
Turning to `CC(C)C1CCCN1C(=O)c1ccc(C(=O)NCc2ccn3ccnc3c2)cc1` (stereo not drawn) [Example 910, N-(imidazo[1,2-a]pyridin-7-ylmethyl)-4-{[2-(propan-2-yl)pyrrolidin-1-yl]carbonyl}benzamide], the IC50 was over 10000 nM.
The same measure for `O=C(NCc1ccn2ccnc2c1)Nc1ccc(C2CCN(C(=O)c3coc4ccccc34)CC2)cc1` [Example 1135, 1-{4-[1-(1-benzofuran-3-ylcarbonyl)piperidin-4-yl]phenyl}-3-(imidazo[1,2-a]pyridin-7-ylmethyl)urea]: 4.23 nM; for `O=C(NCc1ccn2ccnc2c1)c1ccc(C2CCN(C(=O)c3ccnc(Cl)c3F)CC2)cc1` [Example 964, 4-{1-[(2-chloro-3-fluoropyridin-4-yl)carbonyl]piperidin-4-yl}-N-(imidazo[1,2-a]pyridin-7-ylmethyl)benzamide]: 6.22 nM.
The same measure for `COC[C@H]1CCCN1C(=O)c1ccc(C(=O)NCc2ccn3ccnc3c2)cc1` [Example 878, N-(imidazo[1,2-a]pyridin-7-ylmethyl)-4-{[(2R)-2-(methoxymethyl)pyrrolidin-1-yl]carbonyl}benzamide]: over 10000 nM; for `COCc1ccccc1C(=O)N1CCC(c2ccc(C(=O)NCc3ccn4ccnc4c3)cc2)CC1` [Example 925, N-(imidazo[1,2-a]pyridin-7-ylmethyl)-4-{1-[2-(methoxymethyl)benzoyl]piperidin-4-yl}benzamide]: 2.06 nM.
The same measure for `COc1ncc(C)cc1C(=O)N1CCC(c2ccc(NC(=O)NCc3ccn4ccnc4c3)cc2)CC1` [Example 1147, 1-(imidazo[1,2-a]pyridin-7-ylmethyl)-3-(4-{1-[(2-methoxy-5-methylpyridin-3-yl)carbonyl]piperidin-4-yl}phenyl)urea]: 2.83 nM; for `CC(C(=O)N1CCC(c2ccc(C(=O)NCc3ccn4ccnc4c3)cc2)CC1)c1ccccc1` (stereo not drawn) [Example 926, N-(imidazo[1,2-a]pyridin-7-ylmethyl)-4-[1-(2-phenylpropanoyl)piperidin-4-yl]benzamide]: 9.69 nM.
In turn, `O=C(NCc1ccn2ccnc2c1)c1ccc(C2CCN(C(=O)c3coc4ccccc34)CC2)cc1` [Example 1098, 4-[1-(1-benzofuran-3-ylcarbonyl)piperidin-4-yl]-N-(imidazo[1,2-a]pyridin-7-ylmethyl)benzamide] gave an IC50 of 9.55 nM.
With `CCc1nc(C(=O)N2CCC(c3ccc(NC(=O)NCc4ccn5ccnc5c4)cc3)CC2)cs1` [Example 1058, 1-(4-{1-[(2-ethyl-1,3-thiazol-4-yl)carbonyl]piperidin-4-yl}phenyl)-3-(imidazo[1,2-a]pyridin-7-ylmethyl)urea], the IC50 was 2.49 nM. This IC50 lies about 3.8-fold lower than the previous one.
Then `COc1ccc(C)cc1CC(=O)N1CCC(c2ccc(C(=O)NCc3ccn4ccnc4c3)cc2)CC1` [Example 936, N-(imidazo[1,2-a]pyridin-7-ylmethyl)-4-{1-[(2-methoxy-5-methylphenyl)acetyl]piperidin-4-yl}benzamide], with 32.5 nM; and `O=C(NCc1ccn2ccnc2c1)Nc1ccc(C2CCN(C(=O)c3ccnn3C3CCCC3)CC2)cc1` [Example 1137, 1-(4-{1-[(1-cyclopentyl-1H-pyrazol-5-yl)carbonyl]piperidin-4-yl}phenyl)-3-(imidazo[1,2-a]pyridin-7-ylmethyl)urea], with 0.277 nM; and `COc1ccc(C(=O)N2CCC(c3ccc(C(=O)NCc4ccn5ccnc5c4)cc3)CC2)cc1F` [Example 915, 4-[1-(3-fluoro-4-methoxybenzoyl)piperidin-4-yl]-N-(imidazo[1,2-a]pyridin-7-ylmethyl)benzamide], with 174 nM.
The same measure for `O=C(NCc1ccc2ncnn2c1)c1ccc(C2CCN(C(=O)c3cc(F)cc(F)c3)CC2)s1` [Example 836, 5-[1-(3,5-difluorobenzoyl)piperidin-4-yl]-N-([1,2,4]triazolo[1,5-a]pyridin-6-ylmethyl)thiophene-2-carboxamide]: 68.3 nM; for `CCc1ccc(C(=O)N2CCC(c3ccc(C(=O)NCc4ccn5ccnc5c4)cc3)CC2)nc1` [Example 1088, 4-{1-[(5-ethylpyridin-2-yl)carbonyl]piperidin-4-yl}-N-(imidazo[1,2-a]pyridin-7-ylmethyl)benzamide]: 34.4 nM.
Then `O=C(NCc1ccn2ccnc2c1)c1ccc(C2CCN(C(=O)C3COc4ccccc4O3)CC2)cc1` (stereo not drawn) [Example 976, 4-[1-(2,3-dihydro-1,4-benzodioxin-2-ylcarbonyl)piperidin-4-yl]-N-(imidazo[1,2-a]pyridin-7-ylmethyl)benzamide], with 34.9 nM; and `O=C(NCc1ccc2ncnn2c1)c1ccc(C2CCN(S(=O)(=O)c3ccccc3)CC2)s1` [Example 860, 5-[1-(phenylsulfonyl)piperidin-4-yl]-N-([1,2,4]triazolo[1,5-a]pyridin-6-ylmethyl)thiophene-2-carboxamide], with 8.24 nM.
In turn, `O=C(NCc1ccn2ccnc2c1)Nc1ccc(C2CCN(C(=O)c3cccc4ccncc34)CC2)cc1` [Example 1049, 1-(imidazo[1,2-a]pyridin-7-ylmethyl)-3-{4-[1-(isoquinolin-8-ylcarbonyl)piperidin-4-yl]phenyl}urea] had an IC50 of 2.39 nM.
In turn, `O=C(NCc1ccn2ccnc2c1)c1ccc(C2CCN(C(=O)C(CO)c3ccccc3)CC2)cc1` (stereo not drawn) [Example 922, 4-[1-(3-hydroxy-2-phenylpropanoyl)piperidin-4-yl]-N-(imidazo[1,2-a]pyridin-7-ylmethyl)benzamide] came in with an IC50 of 9.95 nM. This IC50 is about 4.2-fold higher than that of the compound before.
In turn, `N#Cc1ccc(CC(=O)N2CCC(c3ccc(NC(=O)NCc4ccn5ccnc5c4)cc3)CC2)cc1` [Example 1050, 1-(4-{1-[(4-cyanophenyl)acetyl]piperidin-4-yl}phenyl)-3-(imidazo[1,2-a]pyridin-7-ylmethyl)urea] displayed an IC50 of 23.4 nM.
Then `N#Cc1ccc(CC(=O)N2CCC(c3ccc(C(=O)NCc4ccn5ccnc5c4)cc3)CC2)cc1` [Example 998, 4-{1-[(4-cyanophenyl)acetyl]piperidin-4-yl}-N-(imidazo[1,2-a]pyridin-7-ylmethyl)benzamide], with 123 nM.
Compound `O=C(NCc1ccn2ccnc2c1)Nc1ccc(C2CCN(C(=O)c3nc4c(s3)CCCC4)CC2)cc1` [Example 1053, 1-(imidazo[1,2-a]pyridin-7-ylmethyl)-3-{4-[1-(4,5,6,7-tetrahydro-1,3-benzothiazol-2-ylcarbonyl)piperidin-4-yl]phenyl}urea] had an IC50 of 3.41 nM. Compared with the last compound, the IC50 is about 36-fold lower.
Then `Cn1nc(C(=O)N2CCC(c3ccc(C(=O)NCc4ccn5ccnc5c4)cc3)CC2)c2c1CCCC2` [Example 994, N-(imidazo[1,2-a]pyridin-7-ylmethyl)-4-{1-[(1-methyl-4,5,6,7-tetrahydro-1H-indazol-3-yl)carbonyl]piperidin-4-yl}benzamide], with 12.1 nM.
Then `Cc1nn(C)c(C(=O)N2CCC(c3ccc(C(=O)NCc4ccn5ccnc5c4)cc3)CC2)c1Cl` [Example 1087, 4-{1-[(4-chloro-1,3-dimethyl-1H-pyrazol-5-yl)carbonyl]piperidin-4-yl}-N-(imidazo[1,2-a]pyridin-7-ylmethyl)benzamide], with 1.68 nM.
